The values that follow come from PubChem BioAssay (NCI).

Some test systems named below: HCC-2998 colon; OVCAR-5 ovarian; COLO 205 colon; SF-295 CNS; HCT-116 colon; DU-145 prostate; LOX IMVI melanoma; MALME-3M melanoma.
Holding throughout (experiment): NCI-60 cell line screen, 48 h

Each structure is given as a SMILES string.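 Following 48 hours of exposure in 96-well plates, responses at five concentrations were used to interpolate endpoints linearly. Here, GI50 denotes the concentration required for 50% inhibition of growth. TGI marks complete inhibition of growth.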 Where only a bound is given, the exact number is not on record here.

As to `COC1=C(OC)C(=O)C(C/C=C(\C)CC/C=C(\C)CC/C=C(\C)CC/C=C(\C)CC/C=C(\C)CC/C=C(\C)CC/C=C(\C)CC/C=C(\C)CC/C=C(\C)CCC=C(C)C)=C(C)C1=O`, the GI50 in the assay on HCC-2998 colon, in the assay with OVCAR-5 ovarian, in the assay on COLO 205 colon, in the assay on SF-295 CNS, with HCT-116 colon and in the assay on DU-145 prostate was greater than 100 µM in each case. For the same molecule, the GI50 in the assay with LOX IMVI melanoma and in the assay on MALME-3M melanoma was greater than 100 µM throughout. Also, the TGI in the assay on HCC-2998 colon, in the assay with OVCAR-5 ovarian, with COLO 205 colon, with SF-295 CNS, with HCT-116 colon and in the assay with DU-145 prostate was greater than 100 µM in each case. The TGI in the assay on LOX IMVI melanoma and in the assay on MALME-3M melanoma was greater than 100 µM each time.

On to `C=CC1C(CC2OC(CO)C(O)C(O)C2O)OC=C2C(=O)OCCC21O` (stereo unspecified), for which the GI50 was 15.3 µM in the assay with HCC-2998 colon; 14.4 µM in the assay on OVCAR-5 ovarian; 19.9 µM in the assay with COLO 205 colon; 23.5 µM in the assay on SF-295 CNS; 16.2 µM with HCT-116 colon; 13.8 µM with DU-145 prostate. Besides, the GI50 was 8.37 µM in the assay on LOX IMVI melanoma and 17.8 µM with MALME-3M melanoma. In addition, the TGI came to 34.4 µM in the assay on HCC-2998 colon; 44.5 µM in the assay with OVCAR-5 ovarian; 45.2 µM in the assay on COLO 205 colon; 62.5 µM in the assay with SF-295 CNS; 32.1 µM in the assay on HCT-116 colon; 62.6 µM with DU-145 prostate. For the same molecule, the TGI in the assay on LOX IMVI melanoma is 23.4 µM; in the assay with MALME-3M melanoma, 51 µM.

For `COc1c(OC)c(OC)c2c(=O)cc(-c3ccc(OC(C)C)cc3)oc2c1OC`, the TGI in the assay with HCC-2998 colon was greater than 53.2 µM; with OVCAR-5 ovarian, greater than 51.9 µM; with COLO 205 colon it was greater than 50.2 µM; in the assay on SF-295 CNS, greater than 53.6 µM; in the assay with HCT-116 colon, 23.6 µM; in the assay on DU-145 prostate it was greater than 50.8 µM. The TGI in the assay on LOX IMVI melanoma is greater than 55.2 µM; with MALME-3M melanoma, greater than 50.3 µM.

`Cc1c(Nc2nccc3cc(CN4CC[C@@H](O)C4)cnc23)cccc1-c1cccc(-c2nc3cc(CN4CC[C@@H](C(=O)O)C4)cc(C#N)c3o2)c1C`: the GI50 in the assay with HCC-2998 colon was 12.7 µM; with OVCAR-5 ovarian it was 53.7 µM; in the assay with COLO 205 colon, 18.7 µM; in the assay with SF-295 CNS it was 3.98 µM; with HCT-116 colon, 6.06 µM; with DU-145 prostate, greater than 100 µM. Besides, the GI50 with LOX IMVI melanoma was 1.97 µM; with MALME-3M melanoma it was 4.35 µM. Also, the TGI was 49 µM with HCC-2998 colon; greater than 100 µM in the assay on OVCAR-5 ovarian; greater than 100 µM with COLO 205 colon; greater than 100 µM in the assay with SF-295 CNS; 23.6 µM in the assay on HCT-116 colon; greater than 100 µM in the assay with DU-145 prostate. For the same molecule, the TGI stood at 4.27 µM in the assay with LOX IMVI melanoma and 23.2 µM with MALME-3M melanoma.

`Fc1ccc2c(c1)C1=C(CCC2)C(c2ccc(Cl)cc2)NC(=S)N1` (stereo unspecified): the GI50 was 43.2 µM with HCC-2998 colon; greater than 100 µM with OVCAR-5 ovarian; 62.1 µM in the assay on COLO 205 colon; 47 µM in the assay on SF-295 CNS; 26.1 µM in the assay with HCT-116 colon; 49.1 µM in the assay on DU-145 prostate. Further, the results for the GI50 with LOX IMVI melanoma and with MALME-3M melanoma were 36 µM and 22.6 µM, respectively. Further, the TGI in the assay on HCC-2998 colon, in the assay with OVCAR-5 ovarian, in the assay with COLO 205 colon, in the assay with SF-295 CNS, in the assay with HCT-116 colon and with DU-145 prostate was greater than 100 µM in each case. The TGI in the assay on LOX IMVI melanoma is greater than 100 µM; with MALME-3M melanoma it was 80.2 µM.

Take `CCN1CCN(c2cc(C(=O)Nc3cccc(Nc4ccc5c(OC)cccc5n4)c3)cc(C(F)(F)F)c2)CC1`: the GI50 in the assay with HCC-2998 colon was 0.72 µM; with OVCAR-5 ovarian it was 2.78 µM; with COLO 205 colon, 0.654 µM; with SF-295 CNS it was 0.803 µM; in the assay on HCT-116 colon, 0.872 µM; in the assay on DU-145 prostate, 1.88 µM. For the same molecule, the GI50 in the assay on LOX IMVI melanoma was 0.781 µM; with MALME-3M melanoma, 0.611 µM. The TGI was determined as 2.01 µM with HCC-2998 colon; 7.84 µM with OVCAR-5 ovarian; 1.49 µM in the assay with COLO 205 colon; 2.25 µM in the assay on SF-295 CNS; 3.54 µM in the assay on HCT-116 colon; 7.33 µM in the assay with DU-145 prostate. Further, the TGI turned out to be 1.96 µM in the assay with LOX IMVI melanoma and 1.33 µM in the assay with MALME-3M melanoma.

`CN1CCN(CCCOc2ccc3nc(Nc4ccc(F)c(F)c4)ccc3c2)CC1`: the GI50 in the assay with HCC-2998 colon was 1.71 µM; with OVCAR-5 ovarian, 2.26 µM; in the assay on COLO 205 colon, 1.72 µM; in the assay on SF-295 CNS it was 1.61 µM; in the assay on HCT-116 colon it was 1.49 µM; in the assay on DU-145 prostate, 3.07 µM. Further, the values for the GI50 with LOX IMVI melanoma and in the assay with MALME-3M melanoma were 1.53 µM and 1.15 µM, respectively. Besides, the TGI with HCC-2998 colon amounted to 3.31 µM; in the assay on OVCAR-5 ovarian, 5.62 µM; in the assay with COLO 205 colon it was 3.69 µM; in the assay with SF-295 CNS, 3.65 µM; with HCT-116 colon it was 3.17 µM; in the assay with DU-145 prostate it was 11.5 µM. Further, the TGI in the assay on LOX IMVI melanoma turned out to be 3.09 µM; in the assay on MALME-3M melanoma, 3.06 µM.

Regarding `COc1cc(S(=O)(=O)Nc2nc(-c3ccc(N4C(=O)C(C)SC4c4ccccc4O)cc3)cs2)ccc1Cl` (stereo unspecified), the GI50 with HCC-2998 colon is 50.3 µM; with OVCAR-5 ovarian, 49.5 µM; with COLO 205 colon it was 40.6 µM; in the assay with SF-295 CNS, 31.8 µM; in the assay with HCT-116 colon, 28.6 µM; with DU-145 prostate it was 42.5 µM. For the same molecule, the GI50 was 52.1 µM in the assay with LOX IMVI melanoma and 89.2 µM in the assay on MALME-3M melanoma. For the same molecule, the TGI in the assay on HCC-2998 colon, in the assay on OVCAR-5 ovarian, in the assay on COLO 205 colon, in the assay with SF-295 CNS, with HCT-116 colon and with DU-145 prostate was greater than 100 µM throughout. Further, the TGI with LOX IMVI melanoma and with MALME-3M melanoma was greater than 100 µM each time.

Take `CC(C)(C)c1ccc(C2CC(=O)C3=C(C2)Nc2ccccc2N(C(=O)c2ccccc2Cl)C3c2ccc(F)cc2)cc1` (stereo unspecified): the GI50 in the assay on HCC-2998 colon, with OVCAR-5 ovarian, with COLO 205 colon, in the assay with SF-295 CNS, in the assay with HCT-116 colon and with DU-145 prostate was greater than 100 µM each time. Further, the GI50 in the assay with LOX IMVI melanoma and with MALME-3M melanoma was greater than 100 µM in each case. In addition, the TGI with HCC-2998 colon, with OVCAR-5 ovarian, in the assay with COLO 205 colon, with SF-295 CNS, in the assay on HCT-116 colon and with DU-145 prostate was greater than 100 µM in each case. The TGI in the assay with LOX IMVI melanoma and with MALME-3M melanoma was greater than 100 µM in each case.
